Data reported in ChEMBL document CHEMBL4118026, “Limaol: A Polyketide from the Benthic Marine Dinoflagellate Prorocentrum lima” (J Nat Prod, 2017).
pIC50: −log10 of the molar value.

Legend:
Assay type in all cases: functional, cell-based
HCT-116 = assay: Cytotoxicity against human HCT116 cells after 24 hrs by MTT assay; conditions: HCT-116, 24 h
N2a = assay: Cytotoxicity against mouse Neuro2a cells after 24 hrs by MTT assay
HepG2 = assay: Cytotoxicity against human HepG2 cells after 24 hrs by MTT assay; conditions: HepG2, 24 h

Row | Compound | pIC50 (HCT-116) | pIC50 (N2a) | pIC50 (HepG2)
1 | C=C(CC(=C)CC(=C)C[C@H]1CC(C)=C[C@@]2(C[C@@H](O)[C@H]3O[C@H](C[C@@H](O)CC(=C)C[C@H]4O[C@H](C/C=C/CCO)C[C@@H](O)[C@@H]4O)[C@H](O)[C@@H](O)[C@@H]3O2)O1)CC(=C)C[C@@H](C)C[C@@H](C)O | 5.14 | 5.02 | 5.43
2 | C=C1[C@@H](O)[C@@H]2O[C@]3(CC[C@H](/C=C/[C@@H](C)[C@@H]4CC(C)=C[C@@]5(O[C@H](C[C@@](C)(O)C(=O)O)CC[C@H]5O)O4)O3)CC[C@H]2O[C@@H]1[C@@H](O)C[C@H](C)[C@H]1O[C@@]2(CCCCO2)CC[C@H]1C [OKADAIC ACID] | 6.17 | 6.07 | 6.27
